Laboratory results published in US20070128217A1 (priority 2003, published 2007).

Experiments:
[1] = tested on: rabbit serum obtained by immunizing a rabbit with the SARS-CoV strain Frankfurt 1; type: binding; design: Binding of a rabbit serum to linear peptides / Binding of a rabbit serum to looped peptides / Rabbit serum linear peptides / Rabbit serum looped peptides / Binding of a rabbit serum to linear peptides of protein N of SARS-CoV Urbani (Rabbit serum linear peptides) / Binding of a rabbit serum to looped/cyclic peptides of protein N of SARS-CoV Urbani (Rabbit serum looped peptides): unit not given here
[2] = tested on: recombinant human anti-SARS-CoV antibody 03-018; type: binding; design: Binding of antibody 03-018 to linear peptides of the N protein of SARS-CoV Urbani / Binding of antibody 03-018 to looped/cyclic peptides of the N protein of SARS-CoV Urbani: unit not given here
[3] = tested on: antibodies in sera from SARS patients (sera 1a, 1b, 2, 6, 37, 62, London, SARS-yellow, SARS-green); type: binding, human; design: Binding of serum 6 to linear peptides of protein X1 of SARS-CoV Urbani / Binding of serum 37 to linear peptides of protein X1 of SARS-CoV Urbani / Binding of serum 6 to looped/cyclic peptide (PEPSCAN-ELISA) / Binding of serum 37 to looped/cyclic peptide (PEPSCAN-ELISA) / Binding of serum 37 to looped/cyclic peptides of protein X1 of SARS-CoV Urbani / Binding of serum 6 to linear peptides of protein X2 / Binding of serum 37 to linear peptides of protein X2 / Binding of serum 37 to looped/cyclic peptides of protein X2 of SARS-CoV Urbani / Binding of serum 6 to linear peptides of protein M of SARS-CoV Urbani / Binding of serum 37 to linear peptides of protein M of SARS-CoV Urbani / Binding of serum 6 to looped/cyclic peptides of protein M of SARS-CoV Urbani / Binding of serum 37 to looped/cyclic peptides of protein M of SARS-CoV Urbani / Binding of serum 6 to linear peptides of protein X3 of SARS-CoV Urbani / Binding of serum 37 to linear peptides of protein X3 of SARS-CoV Urbani / Binding of serum 37 to looped/cyclic peptides of protein X3 of SARS-CoV Urbani / Binding of serum 6 to linear peptides of protein X4 of SARS-CoV Urbani / Binding of serum 37 to linear peptides of protein X4 of SARS-CoV Urbani / Binding of serum 37 to looped/cyclic peptides of protein X4 of SARS-CoV Urbani / Binding of serum 6 to linear peptides of protein X5 of SARS-CoV Urbani / Binding of serum 37 to linear peptides of protein X5 of SARS-CoV Urbani / Binding of serum 37 to looped/cyclic peptides of protein X5 of SARS-CoV Urbani / Binding of serum 6 to linear peptides of protein N of SARS-CoV Urbani / Binding of serum 37 to linear peptides of protein N of SARS-CoV Urbani / Binding of serum 6 to linear peptide (PEPSCAN-ELISA) / Binding of serum 1a to looped/cyclic peptides of protein N of SARS-CoV Urbani / Binding of serum 1b to looped/cyclic peptides of protein N of SARS-CoV Urbani / Binding of serum 2 to looped/cyclic peptides of protein N of SARS-CoV Urbani / Binding of serum 6 to looped/cyclic peptides of protein N of SARS-CoV Urbani / Binding of serum 37 to looped/cyclic peptides of protein N of SARS-CoV Urbani / Binding of serum 62 to looped/cyclic peptides of protein N of SARS-CoV Urbani / Binding of serum London to looped/cyclic peptides of protein N of SARS-CoV Urbani / Binding of serum SARS-green to looped/cyclic peptides of protein N of SARS-CoV Urbani: unit not given here
[4] = tested on: control sera (pooled serum of ten healthy LUMC hospital workers; commercial negative donor pooled serum from the Dutch bloodbank); type: binding, human; design: Binding of Control serum LUMC to linear peptides / Binding of Control serum Blood-bank to linear peptides / Binding of Control serum LUMC to looped peptides / Binding of Control Serum Blood-Bank to Looped peptides / Binding of Control serum LUMC to linear peptides of the protein M of SARS-CoV Urbani / Binding of Control serum Blood-bank to linear peptides of the protein M of SARS-CoV Urbani / Binding of Control serum LUMC to looped peptides of the protein M of SARS-CoV Urbani / Binding of Control Serum Blood-Bank to Looped peptides of the protein M of SARS-CoV Urbani: unit not given here

Row | Sequence | Binding of a rabbit serum to linear peptides of protein N of SARS-CoV Urbani (Rabbit serum linear peptides) [1] | Binding of a rabbit serum to looped/cyclic peptides of protein N of SARS-CoV Urbani (Rabbit serum looped peptides) [1] | Binding of antibody 03-018 to linear peptides of the N protein of SARS-CoV Urbani [2] | Binding of antibody 03-018 to looped/cyclic peptides of the N protein of SARS-CoV Urbani [2] | Binding of serum 1a to linear peptides of protein N of SARS-CoV Urbani [3] | Binding of serum 1a to looped/cyclic peptides of protein N of SARS-CoV Urbani [3] | Binding of serum 1b to linear peptides of protein N of SARS-CoV Urbani [3] | Binding of serum 1b to looped/cyclic peptides of protein N of SARS-CoV Urbani [3] | Binding of serum 2 to linear peptides of protein N of SARS-CoV Urbani [3] | Binding of serum 2 to looped/cyclic peptides of protein N of SARS-CoV Urbani [3] | Binding of serum 6 to linear peptides of protein N of SARS-CoV Urbani [3] | Binding of serum 6 to looped/cyclic peptides of protein N of SARS-CoV Urbani [3] | Binding of serum 37 to linear peptides of protein N of SARS-CoV Urbani [3] | Binding of serum 37 to looped/cyclic peptides of protein N of SARS-CoV Urbani [3] | Binding of serum 62 to linear peptides of protein N of SARS-CoV Urbani [3] | Binding of serum 62 to looped/cyclic peptides of protein N of SARS-CoV Urbani [3] | Binding of serum London to linear peptides of protein N of SARS-CoV Urbani [3] | Binding of serum London to looped/cyclic peptides of protein N of SARS-CoV Urbani [3] | Binding of serum SARS-green to looped/cyclic peptides of protein N of SARS-CoV Urbani [3] | Binding of serum SARS-yellow to looped/cyclic peptides of protein N of SARS-CoV Urbani [3] | other results
1 | ADMDDFSRQLQNSMS | 0.2 | 0.4 | 0.1 | 0.1 | 0.3 | 0.3 | 0.2 | 0.2 | 0.2 | 0.2 | 1.5 | 0.0 | 0.7 | 0.4 | 0.6 | 0.3 | 0.8 | 0.2 | 0.1 | 0.2 | Binding of serum SARS-green to linear peptides of protein N of SARS-CoV Urbani [3]: 0.3; Binding of serum SARS-yellow to linear peptides of protein N of SARS-CoV Urbani [3]: 0.7; Control Serum Blood-Bank Looped peptides [4]: 0.4; Control serum Blood-bank linear peptides [4]: 0.8; Control serum LUMC linear peptides [4]: 0.7; Control serum LUMC looped peptides [4]: 0.2
2 | NSRNSTPGSSRGNSP | 0.2 | 0.5 | 0.1 | 0.2 | – | 0.6 | – | 0.5 | – | 0.5 | – | 0.4 | – | 0.6 | – | 0.5 | – | 0.4 | 0.3 | 0.3 | Binding of serum 1a to linear peptide (PEPSCAN-ELISA) [3]: 0.6; Binding of serum 1b to linear peptide (PEPSCAN-ELISA) [3]: 0.4; Binding of serum 2 to linear peptide (PEPSCAN-ELISA) [3]: 0.3; Binding of serum 6 to linear peptide (PEPSCAN-ELISA) [3]: 0.4; Binding of serum 37 to linear peptide (PEPSCAN-ELISA) [3]: 0.9; Binding of serum 62 to linear peptide (PEPSCAN-ELISA) [3]: 0.9; Binding of serum London to linear peptide (PEPSCAN-ELISA) [3]: 1.4; Binding of serum SARS-green to linear peptide (PEPSCAN-ELISA) [3]: 0.4; Binding of serum SARS-yellow to linear peptide (PEPSCAN-ELISA) [3]: 1.0; Binding of Control Serum Blood-Bank to Looped peptides [4]: 0.7; Binding of Control serum Blood-bank to linear peptides [4]: 0.9; Binding of Control serum LUMC to linear peptides [4]: 0.7; Binding of Control serum LUMC to looped peptides [4]: 0.7
3 | WPQIAQFAPSASAFF | 0.1 | 0.6 | 0.1 | 0.3 | 0.2 | 0.5 | 0.1 | 0.3 | 0.1 | 0.5 | 0.2 | 0.3 | 0.6 | 0.8 | 0.5 | 0.9 | 0.5 | 0.5 | 0.5 | 0.6 | Binding of serum SARS-green to linear peptides of protein N of SARS-CoV Urbani [3]: 0.3; Binding of serum SARS-yellow to linear peptides of protein N of SARS-CoV Urbani [3]: 0.7; Control Serum Blood-Bank Looped peptides [4]: 0.8; Control serum Blood-bank linear peptides [4]: 0.6; Control serum LUMC linear peptides [4]: 0.6; Control serum LUMC looped peptides [4]: 0.9
4 | FFGMSRIGMEVTPSG | 0.2 | 0.4 | 0.1 | 0.2 | 0.3 | 0.3 | 0.1 | 0.2 | 0.2 | 0.4 | 0.2 | 0.1 | 0.7 | 0.5 | 0.7 | 0.4 | 0.6 | 0.3 | 0.1 | 0.4 | Binding of serum SARS-green to linear peptides of protein N of SARS-CoV Urbani [3]: 0.3; Binding of serum SARS-yellow to linear peptides of protein N of SARS-CoV Urbani [3]: 0.8; Control Serum Blood-Bank Looped peptides [4]: 0.5; Control serum Blood-bank linear peptides [4]: 0.8; Control serum LUMC linear peptides [4]: 0.7; Control serum LUMC looped peptides [4]: 0.5
